This is an account of results in patent publication US10722436B2, “Topical compositions” (MARY KAY INC., priority 2015, dated 2020).

In one assay the test system is B16-F1 melanocytes. The experiment in a line: B16 Pigmentation Assay (melanin secretion). Format: cell-based, mouse. As to conditions: B16-F1 cells, 6 days. As to the method:
Melanogenesis is the process by which melanocytes produce melanin, a naturally produced pigment that imparts color to skin, hair, and eyes. Inhibiting melanogenesis is beneficial to prevent skin darkening and lighten dark spots associated with aging. Melanogenesis in B16 cells was determined in the presence or absence of niacinamide by measuring melanin secretion. It was determined that niacinamide inhibits melanogenesis by 30%.
Melanogenesis was determined using B16-F1 melanocytes (ATCC), an immortalized mouse melanoma cell line. The endpoint of this assay was a spectrophotometric measurement of melanin production and cellular viability. B16-F1 melanocytes, were cultivated in standard DMEM growth medium with 10% fetal bovine serum (Mediatech) at 37° C. in 10% CO2 and then treated with or without niacinamide for 6 days. Following incubation, melanin secretion was measured by absorbance at 405 nm and cellular viability was quantified.

Assay [1] deals with procollagen peptide production in human epidermal fibroblasts. The experiment in a line: Collagen Stimulation Assay (procollagen peptide ELISA). The format is cell-based. The following applies: 3 days. The protocol:
Collagen is an extracellular matrix protein critical for skin structure. Increased synthesis of collagen helps improve skin firmness and elasticity. Collagen stimulation was determined using a sandwich enzyme linked immuno-sorbant assay (ELISA) from Takara (#MK101) by measuring production of procollagen peptide (a precursor to collagen) in human epidermal fibroblasts incubated in the presence or absence of oligopeptide-1 or Prunus mume extract. It was determined that oligopeptide-1 increased collagen stimulation by 20% and Prunus mume extract increased collagen stimulation by 71%.
Collagen stimulation can be monitored by a spectrophotometric measurement that reflects the presence of procollagen peptide and cellular viability. The assay employs the quantitative sandwich enzyme immunoassay technique whereby a monoclonal antibody specific for procollagen peptide has been pre-coated onto microplate wells. […] Following incubation, cell culture medium was collected (samples and controls) and the amount of procollagen peptide secretion was quantified using a sandwich enzyme linked immuno-sorbant assay (ELISA) from Takara (#MK101). […] The color development was stopped and the color development was measured at 450 nm by a microplate reader.

The test system of assay [2] is TNF-α production in keratinocytes. The assay can be described thus: Inhibition of Tumor Necrosis Factor Alpha (ELISA, PMA-treated keratinocytes). As to conditions: PMA 10 ng/ml, 6 hours. The format is cell-based, human. The protocol: TNF-α is the prototype ligand of the TNF superfamily. It is a pleiotropic cytokine that plays a central role in inflammation. Increase in its expression is associated with an up regulation in pro-inflammatory activity. The bioassay used to analyze the effect of oligopeptide-1 and Opuntia ficus-indica extract used a spectrophotometric measurement that reflects the presence of TNF-α and cellular viability. It was determined that oligopeptide-1 and Opuntia ficus-indica extract inhibits TNF-α production in keratinocytes by 40% and 50%.
Subconfluent normal human adult keratinocytes (Cascade Biologics) cultivated in EpiLife standard growth medium (Cascade Biologics) at 37° C. in 5% CO2, were treated with phorbol 12-myristate 13-acetate (PMA, 10 ng/ml, Sigma Chemical, #P1585-1MG) and either oligopeptide-1 or Opuntia ficus-indica extract (treated samples) or no additional treatment (untreated sample) for 6 hours. PMA causes a dramatic increase in TNF-α secretion which peaks at 6 hours after treatment. Following incubation, cell culture medium was collected and the amount of TNF-a secretion quantified using a sandwich enzyme linked immuno-sorbant assay (ELISA) from R&D Systems (#DTA00C).
Briefly, the ELISA assay employed the quantitative sandwich enzyme immunoassay technique whereby a monoclonal antibody specific for TNF-α was been pre-coated onto a microplate. […]
(In general: An ELISA detects its analyte on a solid surface through an enzyme-linked reagent.)

In assay [3] the test system is elastin production in cultured human fibroblasts. The experiment in a line: Elastin Stimulation Assay. The format is cell-based. The protocol:
Elastin is a connective tissue protein that helps skin resume shape after stretching or contracting. Elastin is also an important load-bearing protein used in places where mechanical energy is required to be stored. Elastin is made by linking many soluble tropoelastin protein molecules, in a reaction catalyzed by lysyl oxidase. Elastin production was determined in cultured human fibroblasts incubated in the presence or absence of oligopeptide-1. It was determined that oligopeptide-1 increased elastin production by 23%.
Elastin secretion and elastin fibers were monitored by staining of cultured human fibroblasts using antibodies directed against elastin. Human fibroblasts were treated with or without oligopeptide-1. Following incubation, elastin content was measured using immunofluorescent antibodies directed against elastin.

In the next assay the test system is mushroom tyrosinase. The experiment in a line: Mushroom Tyrosinase Activity Assay. The format is biochemical. The following applies: substrate L-Dopa. The protocol:
In mammalian cells, tyrosinase catalyzes two steps in the multi-step biosynthesis of melanin pigments from tyrosine (and from the polymerization of dopachrome). Tyrosinase is localized in melanocytes and produces melanin (aromatic quinone compounds) that imparts color to skin, hair, and eyes. The activity of tyrosinase on its substrate L-Dopa in the presence or absence of oligopeptide-1 was determined using a colorimetric mushroom tyrosinase activity assay. It was determined that oligopeptide-1 inhibits tyrosinase by 40%. Tyrosinase activity was assayed by measuring the ability of purified mushroom tyrosinase (Sigma) to oxidize its substrate, L-Dopa (Fisher), in the presence or absence of oligopeptide-1. Oxidation of L-DOPA by the tyrosinase produced a pigment that was evaluated by colorimetric plate reading at 490 nm. The percent inhibition of mushroom tyrosinase activity was calculated and compared to non-treated controls to determine the ability of test ingredients to inhibit the activity of purified enzyme. Test inhibition was compared with that of the known tyrosinase inhibitor kojic acid (Sigma).

Where no end group is shown, it is not given here. The star is where a group is joined. Hexanoyl = CCCCCC(=O)*

Consider `NC(=O)c1cccnc1` [Niacinamide, 3-Pyridinecarboxamide], for which the “inhibits melanogenesis by” value in the assay on B16-F1 melanocytes turned out to be 30%. In the assay with B16-F1 melanocytes (negative = inhibition), the “Inhibition of Melanogenesis: Activity” value is on record as −30%.
As to “caprooyl-Gly-His-Lys-Lys (Hexanoyl-GHKK) [Oligopeptide-1, modified tetrapeptide; Lucas Meyer, trade name ChroNOline]”, the “increased collagen stimulation by” value in assay [1] was determined as 20%. Besides, in assay [1] (positive = increase), the “Collagen Stimulation: Activity” value was “+20%”. Moreover, the “inhibits TNF-α production in keratinocytes by” value in assay [2] turned out to be 40%. Also, in assay [2] (negative = inhibition), the “Inhibition of TNF-α: Activity” value is reported as −40%. In assay [3], the “increased elastin production by” value came out at 23%. For the same compound, the “Elastin Production: Activity” value in assay [3] (positive = increase) was “+23%”. In addition, the “inhibits tyrosinase by” value in the assay on mushroom tyrosinase amounted to 40%. Besides, the “Inhibition of Tyrosinase: Activity” value in the assay on mushroom tyrosinase (negative = inhibition) is reported as −40%.
